Test results taken from ChEMBL document CHEMBL5096221, “Discovery of a Highly Potent and Orally Bioavailable STAT3 Dual Phosphorylation Inhibitor for Pancreatic Cancer Treatment” (J Med Chem, 2022).

Legend:
[1] = Half life in BALB/c mouse at 1 mg/kg,iv measured upto 24 hrs by LC-MS/MS analysis; type: ADME, organism-based; conditions: in vivo
[2] = MRT (0 to last) in BALB/c mouse at 10 mg/kg,po measured upto 24 hrs by LC-MS/MS analysis; type: ADME, organism-based; conditions: in vivo
[3] = target: T1, Signal transducer and activator of transcription 3 (Homo sapiens, UniProt P40763); assay: Inhibition of STAT3 in human BXPC-3 cells assessed as reduction of c-Myc expression at 30 nM incubated for 4 to 24 hrs by western blot analysis; type: cell-based; conditions: time 4-24 hrs, TDE = time-dependent effect
[4] = target: T1, Signal transducer and activator of transcription 3; assay: Inhibition of STAT3 in human BXPC-3 cells assessed as inhibition of IL-6 stimulated STAT3 phosphorylation at Tyr 705 at 1 to 30 nM by western blot assay; type: cell-based; conditions: dose 1-30 nM, DDE = dose-dependent effect
BXPC-3 = assay: Antitumor activity against human BXPC-3 cells xenografted BALB/c mouse model assessed as tumor growth inhibition at 10 mg/kg,po administrated once daily for 8 weeks; type: functional; conditions: BXPC-3, 1344 h, read-out: TGI

T1 sequence (P40763 whole entry): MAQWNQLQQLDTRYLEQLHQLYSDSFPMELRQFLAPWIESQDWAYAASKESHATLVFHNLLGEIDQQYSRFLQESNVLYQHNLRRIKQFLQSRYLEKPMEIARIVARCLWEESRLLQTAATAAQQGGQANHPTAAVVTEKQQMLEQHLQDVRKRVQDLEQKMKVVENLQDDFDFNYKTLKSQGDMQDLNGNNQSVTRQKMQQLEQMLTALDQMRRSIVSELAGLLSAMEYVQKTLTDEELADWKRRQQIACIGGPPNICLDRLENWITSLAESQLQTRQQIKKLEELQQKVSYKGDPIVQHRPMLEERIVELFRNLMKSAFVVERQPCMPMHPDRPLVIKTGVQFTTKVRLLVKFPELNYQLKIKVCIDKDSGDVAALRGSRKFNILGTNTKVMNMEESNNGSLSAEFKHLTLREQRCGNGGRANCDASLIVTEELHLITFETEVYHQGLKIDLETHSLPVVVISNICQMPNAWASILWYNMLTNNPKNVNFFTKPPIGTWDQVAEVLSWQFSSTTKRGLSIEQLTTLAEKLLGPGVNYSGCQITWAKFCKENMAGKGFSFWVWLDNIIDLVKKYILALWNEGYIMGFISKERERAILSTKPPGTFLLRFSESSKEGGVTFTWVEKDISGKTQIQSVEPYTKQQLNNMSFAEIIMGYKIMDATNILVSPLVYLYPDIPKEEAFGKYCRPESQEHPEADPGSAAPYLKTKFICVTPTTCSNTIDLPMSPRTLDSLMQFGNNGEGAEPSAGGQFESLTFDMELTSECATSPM

- half-life [1]: 10.2 h
- MRT last at 24 h [2]: 9.8 h
- inhibition [3]: Tde
- inhibition [4]: Dde
Structure (SMILES): COc1ccc(-c2noc(-c3cnc(Oc4ccc5cc(C(=O)N6CCN(Cc7ccc(OCC(F)(F)F)cc7)CC6)n(C)c5c4)cn3)n2)cc1
- inhibition in vivo at 10 mg/kg (BXPC-3): 69.2%
